Assay [1] in a line: Displacement of [3H]-Epibatidine from alpha4beta2* nAChR in Sprague-Dawley rat cortical membranes pre-incubated for 5 mins followed by overnight incubation by radioligand liquid scintillation counter analysis. On the technique in general: Displacement assays read how much labelled ligand stays bound in the presence of the test substance.
The target in assay [2] is Neuronal acetylcholine receptor subunit alpha-7 (Rattus norvegicus, UniProt Q05941). Nature of the assay: Displacement of [125I]alpha-Bungarotoxin from alpha7 nAChR in Sprague-Dawley rat hippocampal membranes pre-incubated for 5 mins followed by overnight incubation by radioligand liquid scintillation counter analysis.
Chain of Neuronal acetylcholine receptor subunit alpha-7 (Q05941 whole entry): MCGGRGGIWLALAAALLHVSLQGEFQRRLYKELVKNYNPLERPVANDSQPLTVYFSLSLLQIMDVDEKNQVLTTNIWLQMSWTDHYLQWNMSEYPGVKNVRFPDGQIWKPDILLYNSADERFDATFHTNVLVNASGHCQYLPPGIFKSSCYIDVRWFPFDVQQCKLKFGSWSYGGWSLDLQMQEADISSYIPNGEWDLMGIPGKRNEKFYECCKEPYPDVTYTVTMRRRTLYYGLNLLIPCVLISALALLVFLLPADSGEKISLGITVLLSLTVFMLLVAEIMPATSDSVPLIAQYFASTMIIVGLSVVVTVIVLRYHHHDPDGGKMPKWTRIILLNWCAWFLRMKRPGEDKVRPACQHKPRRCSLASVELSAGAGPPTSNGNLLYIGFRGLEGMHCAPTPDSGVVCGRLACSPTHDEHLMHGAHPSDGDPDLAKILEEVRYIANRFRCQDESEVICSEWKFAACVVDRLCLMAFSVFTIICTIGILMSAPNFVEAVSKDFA
For assay [3], the species on record is Rattus norvegicus. Nature of the assay: Selectivity ratio of Ki for alpha7 nAChR in Sprague-Dawley rat hippocampal membranes to Ki for alpha4beta2 nAChR in Sprague-Dawley rat cortical membranes.
A short description of assay [4]: Displacement of [3H]-Epibatidine from aplha6beta2* nAChR in Sprague-Dawley rat cortical membranes pre-incubated for 5 mins followed by overnight incubation by radioligand liquid scintillation counter analysis.
For assay [5], the target named is Neuronal acetylcholine receptor; alpha3/beta4 (Homo sapiens, UniProt P30926+P32297). The experiment in a line: Displacement of [3H]-Epibatidine from human aplha3beta4 nAChR expressed in HEK293 cells pre-incubated for 5 mins followed by overnight incubation by radioligand liquid scintillation counter analysis. In kind it is cell-based.
Chain of Neuronal acetylcholine receptor; alpha3/beta4 (P30926 whole entry): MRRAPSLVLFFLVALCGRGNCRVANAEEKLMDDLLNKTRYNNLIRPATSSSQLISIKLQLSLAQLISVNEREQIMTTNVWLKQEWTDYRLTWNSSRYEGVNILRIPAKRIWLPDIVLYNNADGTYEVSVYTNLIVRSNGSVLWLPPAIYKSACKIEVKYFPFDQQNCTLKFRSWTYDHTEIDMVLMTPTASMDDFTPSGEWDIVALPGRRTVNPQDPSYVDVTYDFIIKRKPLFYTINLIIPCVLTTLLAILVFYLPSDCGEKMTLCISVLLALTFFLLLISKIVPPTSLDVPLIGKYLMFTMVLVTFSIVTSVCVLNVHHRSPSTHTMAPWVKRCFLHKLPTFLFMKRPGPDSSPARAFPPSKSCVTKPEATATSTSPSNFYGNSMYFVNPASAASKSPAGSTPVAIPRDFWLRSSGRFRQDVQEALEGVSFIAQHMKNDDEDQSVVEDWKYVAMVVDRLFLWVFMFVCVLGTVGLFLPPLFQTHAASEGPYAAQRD
Chain of Neuronal acetylcholine receptor; alpha3/beta4 (P32297 whole entry): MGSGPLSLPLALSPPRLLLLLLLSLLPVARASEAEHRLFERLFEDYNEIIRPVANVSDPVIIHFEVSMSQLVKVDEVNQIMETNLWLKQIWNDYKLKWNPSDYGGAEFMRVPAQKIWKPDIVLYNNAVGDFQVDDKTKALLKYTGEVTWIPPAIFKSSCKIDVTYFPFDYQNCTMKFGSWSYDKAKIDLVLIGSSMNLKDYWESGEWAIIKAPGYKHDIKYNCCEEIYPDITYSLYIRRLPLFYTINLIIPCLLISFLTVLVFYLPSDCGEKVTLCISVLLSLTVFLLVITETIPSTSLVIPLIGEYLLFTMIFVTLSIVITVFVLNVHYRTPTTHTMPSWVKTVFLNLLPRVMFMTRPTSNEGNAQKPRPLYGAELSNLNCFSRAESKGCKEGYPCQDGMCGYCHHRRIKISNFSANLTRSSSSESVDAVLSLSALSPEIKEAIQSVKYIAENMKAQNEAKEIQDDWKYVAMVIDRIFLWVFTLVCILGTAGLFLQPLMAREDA
Assay [6] addresses Neuronal acetylcholine receptor; alpha4/beta2 (Rattus norvegicus, UniProt P09483+P12390). Nature of the assay: Agonist activity at alpha4beta2 nAChR in Sprague-Dawley rat striatal slices assessed as increase in [3H]-Dopamine release after 5 mins by microbeta counting. Format: protein-complex assay.
Assay [7] is filed under the species Rattus norvegicus. Nature of the assay: Agonist activity at aplha6beta2* nAChR in Sprague-Dawley rat striatal slices assessed as stinulation of [3H]-dopamine release in presence of 100 nM alpha-conotoxin MII after 5 mins by microbeta counting.
In assay [8] the target is Neuronal acetylcholine receptor; alpha4/beta2 (Rattus norvegicus) (UniProt P09483+P12390). Nature of the assay: Agonist activity at alpha4beta2 nAChR in Sprague-Dawley rat striatal slices assessed as increase in [3H]-dopamine release after 5 mins by microbeta counting relative to nicotine. Format: protein-complex assay.
The test system of a further assay is HEK293. The experiment in a line: Selectivity ratio of Ki for aplha6beta2* nAChR in Sprague-Dawley rat cortical membranes to Ki for human aplha3beta4 nAChR expressed in HEK293 cells. Format: cell-based.
Assay [9] is described as follows: Antagonist activity against alpha6beta2* nAChR in Sprague-Dawley rat […] assessed as inhibition of nicotine-induced [3H]-dopamine release after 5 mins by microbeta counting.
Assay [10] is described as follows: Binding affinity to alpha4beta2* nAChR in Sprague-Dawley rat cortical membranes after overnight incubation by radioligand liquid scintillation counter analysis.

Calls of active or inactive are those of the source. The calls are words filed in the database; no cut-off is given here.

Chain of Neuronal acetylcholine receptor; alpha4/beta2 (P09483 whole entry): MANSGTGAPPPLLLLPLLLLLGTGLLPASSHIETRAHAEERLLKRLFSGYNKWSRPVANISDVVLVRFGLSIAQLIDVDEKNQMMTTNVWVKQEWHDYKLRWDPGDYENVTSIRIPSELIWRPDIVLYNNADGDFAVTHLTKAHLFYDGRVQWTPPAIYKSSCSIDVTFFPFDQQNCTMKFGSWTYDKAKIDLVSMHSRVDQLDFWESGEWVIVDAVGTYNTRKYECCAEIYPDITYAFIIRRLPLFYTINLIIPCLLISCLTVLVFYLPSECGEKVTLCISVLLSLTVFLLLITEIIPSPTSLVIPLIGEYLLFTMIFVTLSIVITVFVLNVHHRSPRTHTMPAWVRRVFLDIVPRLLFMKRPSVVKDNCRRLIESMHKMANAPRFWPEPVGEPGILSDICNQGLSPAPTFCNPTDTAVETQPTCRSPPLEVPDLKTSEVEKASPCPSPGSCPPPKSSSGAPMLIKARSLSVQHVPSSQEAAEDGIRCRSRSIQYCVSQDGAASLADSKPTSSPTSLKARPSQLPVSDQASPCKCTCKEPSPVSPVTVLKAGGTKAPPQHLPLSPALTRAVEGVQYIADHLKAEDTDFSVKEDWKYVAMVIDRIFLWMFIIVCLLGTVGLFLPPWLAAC
Chain of Neuronal acetylcholine receptor; alpha4/beta2 (P12390 whole entry): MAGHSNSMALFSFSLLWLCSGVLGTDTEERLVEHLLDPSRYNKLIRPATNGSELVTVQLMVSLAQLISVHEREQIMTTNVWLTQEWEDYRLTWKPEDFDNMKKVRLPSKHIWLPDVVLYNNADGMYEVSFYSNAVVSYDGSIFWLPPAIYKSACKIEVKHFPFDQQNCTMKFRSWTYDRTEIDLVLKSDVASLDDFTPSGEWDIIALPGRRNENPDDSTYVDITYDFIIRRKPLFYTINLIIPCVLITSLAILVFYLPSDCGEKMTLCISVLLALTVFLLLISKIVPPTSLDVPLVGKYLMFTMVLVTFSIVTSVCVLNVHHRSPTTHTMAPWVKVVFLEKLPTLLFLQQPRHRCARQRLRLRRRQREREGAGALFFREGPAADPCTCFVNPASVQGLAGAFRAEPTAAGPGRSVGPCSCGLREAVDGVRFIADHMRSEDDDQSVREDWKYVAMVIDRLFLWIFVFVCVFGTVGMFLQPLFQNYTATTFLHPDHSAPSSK

What is called Ki is a dissociation constant, usually derived from enzyme kinetics or from competition with a known ligand. Low values mean higher affinity, high ones lower affinity. With `Clc1ccc(-c2cncc(N3CC4CC(C3)N4)c2)c(Cl)c1`, the values for the Ki in [1] and in assay [2] were 0.0821 nM and 13000 nM, respectively.

For orientation: EC50 means the concentration at which the effect is half-maximal. `Clc1cncc(N2CC3CC(C2)N3)c1`: the Ki stood at 0.00632 nM in assay [1], 73 nM in [2], 0.0112 nM in assay [4] and 2.6 nM in assay [5]. In addition, the results for the Ratio Ki in the assay filed under Rattus norvegicus [3] and in the assay with HEK293 were 11600 and 411, respectively. Moreover, the EC50 in [6] (read-out: EC50) was 1.4 nM. The outcome in the assay listed under Rattus norvegicus [7] was inactive. The Efficacy in [8] worked out at 111%.

A word on the IC50: it is the concentration that gives 50% inhibition. As for `Fc1ccc(-c2cncc(N3CC4CC(C3)N4)c2)cc1`, the Ki in assay [1] was 0.0248 nM; in assay [2], 110000 nM; in [4] it was 0.032 nM; in assay [5], 1.6 nM. Besides, the Ratio Ki in the assay filed under Rattus norvegicus [3] was 4.44e+06. For the same molecule, the EC50 entry in assay [6] is “Not Active”. The IC50 in [9] came to 0.7 nM.

Take `Clc1ccc(Cl)c(-c2cncc(N3CC4CC(C3)N4)c2)c1`: the results for the Ki in [1] and in assay [2] were 0.0667 nM and 6000 nM, respectively. In addition, in the assay filed under Rattus norvegicus [3], the Ratio Ki is 90000.

Consider `Clc1ccc(-c2cncc(N3CC4CC(C3)N4)c2)cc1Cl`, for which the values for the Ki in assay [1] and in [2] were 0.0908 nM and 36000 nM, respectively. For the same molecule, the Ratio Ki in the assay filed under Rattus norvegicus [3] was determined as 397000.

In the case of `Cc1ccc(-c2cncc(N3CC4CC(C3)N4)c2)cc1`, the results for the Ki in assay [1] and in [2] were 0.0143 nM and 96000 nM, respectively. The Ratio Ki in the assay listed under Rattus norvegicus [3] was 6.69e+06.

With `c1ccc(-c2cncc(N3CC4CC(C3)N4)c2)cc1`, the Ki in [1] came out at 0.0112 nM; in assay [2] it was 17000 nM; in assay [4] it was 0.0112 nM; in assay [5] it was 6.1 nM. The Ratio Ki came out at 1.52e+06 in the assay listed under Rattus norvegicus [3] and 521 in the assay on HEK293. For the same molecule, in assay [6], the EC50 result is “Not Active”. Also, in [9], the IC50 turned out to be 5.87 nM.

For the molecule `Brc1cncc(N2CC3CC(C2)N3)c1`, the Ki in [1] was found to be 0.00572 nM; in [2] it was 176 nM. Besides, the Ratio Ki in the assay listed under Rattus norvegicus [3] was 30800.

Take `O=[N+]([O-])c1ccc(-c2cncc(N3CC4CC(C3)N4)c2)cc1`: the results for the Ki in assay [1] and in assay [2] were 0.0105 nM and 5000 nM, respectively. In addition, in the assay listed under Rattus norvegicus [3], the Ratio Ki was 478000.

Turning to `Clc1ccc(-c2cncc(N3CC4CC(C3)N4)c2)cc1`, the values for the Ki in assay [1] and in [2] were 0.0328 nM and 48000 nM, respectively. Besides, the Ratio Ki in the assay filed under Rattus norvegicus [3] stood at 1.46e+06.

As to `COc1ccc(-c2cncc(N3CC4CC(C3)N4)c2)cc1`, the results for the Ki in [1] and in assay [2] were 0.0121 nM and 6500 nM, respectively. Also, in the assay filed under Rattus norvegicus [3], the Ratio Ki turned out to be 537000.

As for `Clc1ccc(N2CC3CC(C2)N3)cn1`, the Ki in assay [4] is 0.0048 nM; in assay [5], 0.2 nM. The EC50 in [6] (read-out: EC50) was found to be 1.16 nM. Moreover, the result in the assay filed under Rattus norvegicus [7] was inactive. The Efficacy in assay [8] worked out at 120%.

Consider `Clc1ccc([C@@H]2C[C@H]3CC[C@@H]2N3)cn1` [(+)-EPIBATIDINE], for which affinity in [10] was put at a Ki of 0.043 nM. This lies in the picomolar range.

`Brc1ccc(-c2cncc(N3CC4CC(C3)N4)c2)cc1`: the Ki came out at 0.151 nM in assay [1] and 34000 nM in [2]. Besides, the Ratio Ki in the assay listed under Rattus norvegicus [3] was found to be 226000.

The values above are taken from ChEMBL document CHEMBL3627604, “Design of novel 3,6-diazabicyclo[3.1.1]heptane derivatives with potent and selective affinities for α4β2 neuronal nicotinic acetylcholine receptors” (Eur J Med Chem, 2015).
